Data on three compounds can be found in PubChem BioAssay (NCI).

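Following 48 hours of exposure in 96-well plates, responses at five concentrations were used to interpolate endpoints linearly. TGI: total growth inhibition.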

Holding throughout (experiment): inhibition of tumour cell growth, NCI panel, 48 h
The test system of experiment [1] is RPMI-8226 leukemia.
The subject of experiment [2] is MOLT-4 leukemia.
For experiment [3], the system named is SW-620 colon.
Experiment [4] concerns SK-MEL-28 melanoma.
The subject of experiment [5] is CAKI-1 renal.
In experiment [6] the test system is NCI-H522 lung.
The test system of experiment [7] is ACHN renal.
The subject of experiment [8] is SNB-19 CNS.
Experiment [9] deals with NCI-H460 lung.
The test system of experiment [10] is HOP-62 NSCLC.
Experiment [11] has as its system HL-60(TB) leukemia.
In experiment [12] the test system is T-47D breast.
For experiment [13], the system named is MDA-MB-231 breast.

With `COC(=O)[C@]1(c2cc3ccccc3[nH]2)CC2CN(CC(=O)N(C)OC)C1C1OC(C)(C)OC21` (some centres undefined), the TGI in [1] was 74 µM; in experiment [2], 49.9 µM; in [3], above 100 µM; in experiment [4] it was above 100 µM; in experiment [5] it was above 100 µM; in experiment [6] it was above 100 µM. The TGI in [7] is above 100 µM; in experiment [8], above 100 µM; in experiment [9] it was above 100 µM; in experiment [10], above 100 µM; in experiment [11], 51.4 µM; in [12], above 100 µM. The compound further registered a TGI in experiment [13] above 100 µM.

As for `O=[N+]([O-])c1cc(Cl)ccc1S(=O)(=O)c1ccccc1`, the TGI in [1], in experiment [2], in experiment [3], in experiment [4], in experiment [5] and in experiment [6] was above 100 µM in each case. In addition, the TGI in experiment [7], in [8], in [9], in experiment [10], in [11] and in [12] was above 100 µM each time. In experiment [13], this compound showed a TGI above 100 µM.

As for `COc1cc2c(cc1OC)-c1cc3ccccc3c(=O)n1CCC2`, the TGI in [1] was 29.4 µM; in experiment [2] it was 10.4 µM; in experiment [3] it was above 87.9 µM; in experiment [4], above 73.6 µM; in experiment [5], 44.9 µM; in experiment [6], 74.9 µM. The TGI in [7] is above 100 µM; in experiment [8] it was above 100 µM; in experiment [9], 11.2 µM; in experiment [10], above 75.3 µM; in experiment [11], 11.5 µM; in experiment [12], 68.9 µM. This compound also showed a TGI in experiment [13] of 57.2 µM.
